Reference: ChEMBL document CHEMBL1201862, “PubChem BioAssay data set” (2004)
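How tested: cells in 96-well plates exposed to compound for 48 hours at five concentrations. GI50 = concentration required for 50% inhibition of growth.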 Activity calls are given as the source filed them. Rule as the data show it: active = GI50 up to about 1.1 µM and inactive = higher.

Legend:
Assay in all cases: inhibition of tumour cell growth, NCI panel, 48 h
A549 = system: A549
CAKI-1 = system: CAKI-1
DLD-1 = system: DLD-1
LOX IMVI = system: LOX IMVI
MOLT-4 = system: MOLT-4
Malme-3M = system: Malme-3M
NCI-H522 = system: NCI-H522
OVCAR-5 = system: OVCAR-5
SF-539 = system: SF-539
SK-MEL-28 = system: SK-MEL-28
SK-MEL-5 = system: SK-MEL-5
SN12C = system: SN12C
SNB-19 = system: SNB-19
SW-620 = system: SW-620
U-251 = system: U-251
UO-31 = system: UO-31
BT-549 = system: BT-549
Hs-578T = system: Hs-578T
MDA-MB-231 = system: MDA-MB-231
T47D = system: T47D

Compound | GI50 (A549) | GI50 (CAKI-1) | GI50 (DLD-1) | GI50 (LOX IMVI) | GI50 (MOLT-4) | GI50 (Malme-3M) | GI50 (NCI-H522) | GI50 (OVCAR-5) | GI50 (SF-539) | GI50 (SK-MEL-28) | GI50 (SK-MEL-5) | GI50 (SN12C) | GI50 (SNB-19) | GI50 (SW-620) | GI50 (U-251) | GI50 (UO-31) | GI50 (BT-549) | GI50 (Hs-578T) | GI50 (MDA-MB-231) | GI50 (T47D)
O=C(Nc1c(-c2nc3ccccc3[nH]2)sc(=S)n1-c1ccccc1)c1ccccc1 | > 100 µM (inactive) | > 100 µM (inactive) | > 100 µM (inactive) | 97.1 µM (inactive) | > 100 µM (inactive) | > 100 µM (inactive) | > 100 µM (inactive) | > 100 µM (inactive) | 48.8 µM (inactive) | > 100 µM (inactive) | > 100 µM (inactive) | 74 µM (inactive) | 82 µM (inactive) | > 100 µM (inactive) | > 100 µM (inactive) | > 100 µM (inactive) | – | – | – | –
CC1CCc2c(sc3ncnc(N/N=C/c4ccc(Cl)cc4)c23)C1 (stereo not drawn) | 31 µM (inactive) | 40.8 µM (inactive) | 33.6 µM (inactive) | 22.1 µM (inactive) | 20.6 µM (inactive) | > 100 µM (inactive) | 25.9 µM (inactive) | > 100 µM (inactive) | > 10 µM (inactive) | 32.3 µM (inactive) | 17.6 µM (inactive) | 33.4 µM (inactive) | 30.1 µM (inactive) | 35.6 µM (inactive) | 31.9 µM (inactive) | 4.78 µM (inactive) | – | – | – | –
Nc1nnc2nc(CC(=O)/C=C/c3ccccc3)c(=O)[nH]n12 | > 100 µM (inactive) | > 100 µM (inactive) | > 100 µM (inactive) | > 100 µM (inactive) | > 100 µM (inactive) | > 100 µM (inactive) | > 100 µM (inactive) | > 100 µM (inactive) | > 100 µM (inactive) | > 100 µM (inactive) | > 100 µM (inactive) | > 100 µM (inactive) | > 100 µM (inactive) | > 100 µM (inactive) | > 100 µM (inactive) | > 100 µM (inactive) | – | – | – | –
c1ccc2c(NCCCCCCCCNc3c4ccccc4nc4ccccc34)c3ccccc3nc2c1 | 0.0948 µM (active) | 0.546 µM (active) | 0.143 µM (active) | 0.181 µM (active) | 0.0419 µM (active) | 1.14 µM (inactive) | < 0.0247 µM (active) | 0.23 µM (active) | 0.233 µM (active) | – | 1.39 µM (inactive) | 0.356 µM (active) | 0.332 µM (active) | 0.0506 µM (active) | 0.184 µM (active) | 1.35 µM (inactive) | 1.16 µM (inactive) | 0.478 µM (active) | 0.0482 µM (active) | 0.59 µM (active)
COc1cccc2nc3cc(C)c(C)cc3nc12 | > 100 µM (inactive) | > 100 µM (inactive) | 79.1 µM (inactive) | 96.8 µM (inactive) | > 100 µM (inactive) | > 100 µM (inactive) | 95.9 µM (inactive) | > 100 µM (inactive) | > 100 µM (inactive) | > 100 µM (inactive) | 97.5 µM (inactive) | > 100 µM (inactive) | > 100 µM (inactive) | > 100 µM (inactive) | > 100 µM (inactive) | 61.2 µM (inactive) | – | – | – | –
COc1ccc(C(=O)Nc2ccn(CCOC(=O)c3ccc(OC)cc3)c(=O)n2)cc1 | > 100 µM (inactive) | > 100 µM (inactive) | > 100 µM (inactive) | > 100 µM (inactive) | – | > 100 µM (inactive) | 46.1 µM (inactive) | > 100 µM (inactive) | > 100 µM (inactive) | > 100 µM (inactive) | > 100 µM (inactive) | > 100 µM (inactive) | – | > 100 µM (inactive) | 86.7 µM (inactive) | 76.2 µM (inactive) | – | – | – | –
CC(=O)NC(CCCN)C(=O)NCc1ccccc1 (stereo not drawn) | > 100 µM (inactive) | > 100 µM (inactive) | > 100 µM (inactive) | > 100 µM (inactive) | > 100 µM (inactive) | > 100 µM (inactive) | > 100 µM (inactive) | > 100 µM (inactive) | > 100 µM (inactive) | > 100 µM (inactive) | > 100 µM (inactive) | > 100 µM (inactive) | > 100 µM (inactive) | > 100 µM (inactive) | > 100 µM (inactive) | > 100 µM (inactive) | – | – | – | –
CCNC(=O)/C=C/CCC#Cc1ccc(-c2ccc(-c3cccs3)s2)s1 | > 100 µM (inactive) | > 100 µM (inactive) | > 100 µM (inactive) | > 100 µM (inactive) | > 100 µM (inactive) | 3.52 µM (inactive) | > 100 µM (inactive) | > 100 µM (inactive) | > 100 µM (inactive) | – | 5.24 µM (inactive) | – | > 100 µM (inactive) | > 100 µM (inactive) | > 100 µM (inactive) | > 100 µM (inactive) | – | – | – | –
COC(=O)c1ccccc1NC(=O)C(=O)CC(=O)c1ccccc1NC1=CC(=O)C(=O)c2ccccc21 | 16.3 µM (inactive) | 23.8 µM (inactive) | 4.57 µM (inactive) | 1.68 µM (inactive) | 3.98 µM (inactive) | 3.02 µM (inactive) | 5.22 µM (inactive) | 29.2 µM (inactive) | 18.6 µM (inactive) | 13.1 µM (inactive) | 5.13 µM (inactive) | 3.94 µM (inactive) | 20.2 µM (inactive) | 5.4 µM (inactive) | 11.1 µM (inactive) | 15.1 µM (inactive) | 15.2 µM (inactive) | 7.45 µM (inactive) | 3.4 µM (inactive) | 18.7 µM (inactive)
C=CCN1C(=O)CS/C1=N\NC(=O)c1c(C)nc2sccn12 | > 100 µM (inactive) | > 100 µM (inactive) | > 100 µM (inactive) | > 100 µM (inactive) | > 100 µM (inactive) | > 100 µM (inactive) | > 100 µM (inactive) | > 100 µM (inactive) | > 100 µM (inactive) | > 100 µM (inactive) | > 100 µM (inactive) | > 100 µM (inactive) | > 100 µM (inactive) | > 100 µM (inactive) | > 100 µM (inactive) | – | – | – | – | –
CCOC(=O)/C(O)=C/c1cc(OC)cc(=O)o1 | > 100 µM (inactive) | > 100 µM (inactive) | > 100 µM (inactive) | > 100 µM (inactive) | > 100 µM (inactive) | > 100 µM (inactive) | > 100 µM (inactive) | > 100 µM (inactive) | > 100 µM (inactive) | > 100 µM (inactive) | > 100 µM (inactive) | > 100 µM (inactive) | > 100 µM (inactive) | > 100 µM (inactive) | > 100 µM (inactive) | > 100 µM (inactive) | – | – | – | –
